Measured values from BindingDB's records for patent US20240076297 (Merck Sharp & Dohme, 2024).

How the values were obtained:
[1] = biological target: T1, Adenosine receptor A2b (Homo sapiens, UniProt P29275); test: Measurement of A2A or A2B Binding Affinity Using Radioligand Binding
T1 sequence (P29275 whole entry): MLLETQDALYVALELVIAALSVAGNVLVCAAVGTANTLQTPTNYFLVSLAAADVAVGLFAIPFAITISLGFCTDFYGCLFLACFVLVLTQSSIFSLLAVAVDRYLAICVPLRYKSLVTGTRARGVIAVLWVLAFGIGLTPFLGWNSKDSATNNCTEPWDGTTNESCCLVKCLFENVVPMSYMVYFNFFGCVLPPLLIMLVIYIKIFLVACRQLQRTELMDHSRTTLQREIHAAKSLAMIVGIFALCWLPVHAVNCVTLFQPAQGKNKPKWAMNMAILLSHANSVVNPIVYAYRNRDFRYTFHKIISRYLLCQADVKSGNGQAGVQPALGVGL
Procedure: (§1) Method (A): 148 μL (5 μg/mL) membranes (Perkin Elmer, Cat. No. RBHA2aM400UA) and 2 μL compounds of the invention to be tested (test compound) were transferred to individual wells of a 96-well polypropylene assay plate and incubated for 15 to 30 min at room temperature. [3H] SCH58261 ((7-(2-phenylethyl)-5-amino-2-(2-furyl)-pyrazolo-[4,3-e]-1,2,4-triazolo[1,5-c]pyrimidine)) was diluted in assay buffer (50 mM Tris pH 7.4, 10 mM MgCl2, 0.005% Tween20) to a concentration of 4 nM and 50 μL transferred to each well of the assay plate. To define total and non-specific binding, wells containing 1% DMSO and 1 μM ZM241385 (Tocris Bioscience, Cat. No. 1036) respectively, were also included. The assay plate was incubated at room temperature for 60 min with agitation. […] The plate was incubated for at least 20 min, and then the amount of radioactivity remaining in each well was determined using a TopCount (Perkin Elmer) scintillation counter. After normalization to total and non-specific binding, the percent effect at each compound concentration was calculated. The plot of percent effect versus the log of compound concentration was analyzed electronically using a 4-parameter logistic fit based on the Levenberg-Marquardt algorithm to generate IC50 values.

[2] = biological target: Adenosine receptor A2a (Homo sapiens, UniProt P29274); test: as above
Procedure: as §1

Sequence of Adenosine receptor A2a (P29274 whole entry): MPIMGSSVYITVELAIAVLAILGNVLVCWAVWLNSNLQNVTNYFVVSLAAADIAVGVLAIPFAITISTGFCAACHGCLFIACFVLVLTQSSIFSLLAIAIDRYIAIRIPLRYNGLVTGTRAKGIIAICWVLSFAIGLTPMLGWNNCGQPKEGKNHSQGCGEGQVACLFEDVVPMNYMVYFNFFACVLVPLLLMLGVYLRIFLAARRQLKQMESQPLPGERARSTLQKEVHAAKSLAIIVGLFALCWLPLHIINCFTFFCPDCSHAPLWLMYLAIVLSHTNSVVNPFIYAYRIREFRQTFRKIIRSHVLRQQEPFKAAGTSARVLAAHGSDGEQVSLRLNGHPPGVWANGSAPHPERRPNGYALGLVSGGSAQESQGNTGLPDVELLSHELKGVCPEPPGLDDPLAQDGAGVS

COc1cccc2c1nc(N)n1nc(CCS(=O)(=O)C(F)(F)F)nc21 [US20240076297, Example 13.5]
IC50 [1]: 0.0813 µM | IC50 [2]: 0.0109 µM
